# Key:
# Type in all cases: in vivo
# [1] = test system: Diabrotica undecimpunctata howardi, eggs-southern corn rootworm (SCR-Eggs); test: Southern corn rootworm eggs (SCR-Eggs) treated diet test; design: key: 0 = no effect; 1 = 10-25% kill; 2 = 26-35% kill; 3 = 36-45% kill; 4 = 46-55% kill; 5 = 56-65% kill; 6 = 66-75% kill; 7 = 76-85% kill; 8 = 86-99% kill; 9 = 100% kill; settings: mortality after 7 days
# Procedure, shortened: (§1)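 Eggs of S. eridania or D. undecimpunctata howardi were set on artificial diet pretreated with test solution (10,000 ppm stock in 35% aqueous acetone, water dilutions) and dried. Wells were sealed with vented clear covers, and mortality was scored at day 7.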
# [2] = test system: Aphis gossypii, cotton aphid (CA); test: Cotton aphid (CA) cotyledon dip test; design: key: 0 = no effect; 1 = 10-25% kill; 2 = 26-35% kill; 3 = 36-45% kill; 4 = 46-55% kill; 5 = 56-65% kill; 6 = 66-75% kill; 7 = 76-85% kill; 8 = 86-99% kill; 9 = 100% kill; settings: mortality after 5 days
# Procedure, shortened: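 Mortality was scored 5 days after dipping aphid-infested cotyledons, colonised overnight from a transfer leaf, into water dilutions of a 35% acetone/water compound solution.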
# [3] = test system: Diabrotica virgifera virgifera Leconte, 2nd instar western corn rootworm (WCR); test: Western corn rootworm (WCR) soil test; design: key: 0 = no effect; 1 = 10-25% kill; 2 = 26-35% kill; 3 = 36-45% kill; 4 = 46-55% kill; 5 = 56-65% kill; 6 = 66-75% kill; 7 = 76-85% kill; 8 = 86-99% kill; 9 = 100% kill
# Procedure, shortened: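 Ten 2nd-instar rootworm larvae are placed in jars of moist soil with millet seed and talc treated with 1.25 mg active ingredient (roughly 50 kg/ha) from a 35% acetone-in-water solution. After 5 days mortality is scored, counting missing larvae as dead.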
# [4] = test system: Spodoptera eridania, eggs-southern armyworm (SAW-Eggs); test: Southern armyworm eggs (SAW-Eggs) treated diet test; design: key: 0 = no effect; 1 = 10-25% kill; 2 = 26-35% kill; 3 = 36-45% kill; 4 = 46-55% kill; 5 = 56-65% kill; 6 = 66-75% kill; 7 = 76-85% kill; 8 = 86-99% kill; 9 = 100% kill; settings: mortality after 7 days
# Procedure, shortened: as §1
# [5] = test system: M. incognita (Root Knot Nematode) larvae; test: Evaluation of test compounds against M. incognita larvae in microtiter plate wells (movement score); settings: larvae scored for movement after 20-24 hours; note: key: A score of '9' indicates inactive worms with a straight, sticklike morphology; A score of '8' indicates inactive worms with a limp, curled or curved morphology; A score of '7' indicates dead/paralyzed worms after 72 hours
# Procedure, shortened: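 Scoring is by larval movement: dead or paralyzed worms count as positive, and a "7" means dead/paralyzed at 72 hours. Freshly hatched root-knot larvae (50-65 per well) in buffered S Medium were incubated with compounds under plate sealers for 20-24 h before the first read.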
# [6] = test system: Spodoptera eridania, 2nd instar larvae, southern armyworm (SAW); test: Southern armyworm (SAW) leaf dip test; design: key: 0 = no effect; 1 = 10-25% kill; 2 = 26-35% kill; 3 = 36-45% kill; 4 = 46-55% kill; 5 = 56-65% kill; 6 = 66-75% kill; 7 = 76-85% kill; 8 = 86-99% kill; 9 = 100% kill
# Procedure, shortened: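 Ten 2nd instar caterpillars feed on a Sieva lima bean leaf that was dipped 3 seconds in test solution (stock 10,000 ppm in 35% acetone/water, water-diluted). Five days later, larvae are assessed for death, feeding reduction or abnormal molting.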
# [7] = test system: Tetranychus urticae (OP-resistant strain), 2-spotted spider mite (TSM); test: 2-spotted spider mite (TSM) plant dip test; design: key: 0 = no effect; 1 = 10-25% kill; 2 = 26-35% kill; 3 = 36-45% kill; 4 = 46-55% kill; 5 = 56-65% kill; 6 = 66-75% kill; 7 = 76-85% kill; 8 = 86-99% kill; 9 = 100% kill; settings: mortality after 2 days
# Procedure, shortened: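 Mortality counted 2 days after a 3 s agitated dip of infested Sieva lima bean plants. Compound came from a 10,000 ppm stock in 35% aqueous acetone, with further dilution in water. Each primary leaf carried about 100 OP-resistant mites, allowed to settle ~2 h before dipping.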
# [8] = test system: C. elegans (Bristol strain); test: Evaluation of test compounds against C. elegans (motility, 96-well plate); design: key: 9=complete kill in 4 hours; 8=complete kill in 24 hours; 7=markedly reduced motility in approximately 95% of worms in 24 hours; 0=normal motility, same as controls; settings: motility at 4 and 24 hours
# Procedure, shortened: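 Activity is a semi-quantitative visual score of adult and larval movement, read at 4 h and 24 h post-immersion at 20 °C after gentle tapping. Worms were suspended in Na buffer in wells where compound, dissolved in 80% acetone, had been evaporated.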
Compound,SCR Eggs (1000 ppm) rating [1],CA (300 ppm) rating [2],WCR (50 ppm) rating [3],SAW Eggs (300 ppm) rating [4],M. incognita (150 ppm) score [5],SAW (300 ppm) rating [6],TSM (300 ppm) rating [7],Rating Against C. elegans (150 ppm) [8]
CCOC(=O)CSC(C[N+](=O)[O-])c1cccc(OC)c1 (stereo not drawn) [Example 56],0,0,0,0,9,0,5 (5 = 56-65% kill),8
CCCCOC(=O)CSC(C[N+](=O)[O-])c1cccc(OC)c1 (stereo not drawn) [Example 57],0,0,0,0,9,0,0,7
COc1cccc(C(C[N+](=O)[O-])SCC(=O)OCCCCCC(C)C)c1 (stereo not drawn) [Example 58],0,0,0,0,0,0,0,0
CCCCC(CC)COC(=O)CSC(C[N+](=O)[O-])c1cccc(OC)c1 (stereo not drawn) [Example 59],0,0,0,0,0,0,0,0
COc1cccc(C(C[N+](=O)[O-])SCc2ccccc2)c1 (stereo not drawn) [Example 60],0,0,0,0,0,0,0,0
CCCSC(C[N+](=O)[O-])c1cccc(OC)c1 (stereo not drawn) [Example 61],0,5 (5 = 56-65% kill),0,0,0,0,0,7
C=CCSC(C[N+](=O)[O-])c1ccc(OC(F)(F)F)cc1 (stereo not drawn) [Example 123],0,0,5 (5 = 56-65% kill),8 (8 = 86-99% kill),0,0,0,7
O=[N+]([O-])CC(SCc1ccccc1)c1ccc(OC(F)(F)F)cc1 (stereo not drawn) [Example 124],0,0,0,9 (9 = 100% kill),0,0,0,7
C=CCSC(C[N+](=O)[O-])c1ccc2ccccc2c1 (stereo not drawn) [Example 125],0,0,0,0,0,0,0,0
O=C(O)CSC(C[N+](=O)[O-])c1ccc(OC(F)(F)F)cc1 (stereo not drawn) [Example 127],0,0,0,0,9,0,0,9
O=C(O)CSC(C[N+](=O)[O-])c1cccc([N+](=O)[O-])c1 (stereo not drawn) [Example 128],0,0,0,0,9,0,0,9
C=CCSC(C[N+](=O)[O-])c1cccc([N+](=O)[O-])c1 (stereo not drawn) [Example 129],0,0,0,0,0,0,0,0
O=C(O)CSC(C[N+](=O)[O-])c1c(Cl)cccc1Cl (stereo not drawn) [Example 130],0,0,3 (3 = 36-45% kill),0,9,0,0,9
COC(=O)CSC(C[N+](=O)[O-])c1c(Cl)cccc1Cl (stereo not drawn) [Example 131],0,0,0,0,9,0,0,7
CCOC(=O)CSC(C[N+](=O)[O-])c1c(Cl)cccc1Cl (stereo not drawn) [Example 132],9 (9 = 100% kill),0,0,9 (9 = 100% kill),0,0,0,0
